From patent US10233173B2, “Substituted 1,2,3-triazoles as NR2B-selective NMDA modulators” (JANSSEN PHARMACEUTICA NV, priority 2016, dated 2019)

The compounds below were run against human GluN1/GluN2B NMDA receptors (Homo sapiens, UniProt Q05586+Q13224) (assay: Cell-based calcium flux (FLIPR) assay on cloned human NR1/NR2B ion channels expressed in mammalian cells). Settings: standard assay; glutamate at ~EC80; FLIPR calcium flux.
Outline: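 Calcium influx followed by FLIPR fluorescence after 5 min compound exposure and a further 5 min co-agonist challenge: 10 μM glycine with glutamate at ~EC80 (standard) or EC40 (HTS).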

human GluN1/GluN2B NMDA receptors, sequence (Q13224 27-1484, other chains not shown): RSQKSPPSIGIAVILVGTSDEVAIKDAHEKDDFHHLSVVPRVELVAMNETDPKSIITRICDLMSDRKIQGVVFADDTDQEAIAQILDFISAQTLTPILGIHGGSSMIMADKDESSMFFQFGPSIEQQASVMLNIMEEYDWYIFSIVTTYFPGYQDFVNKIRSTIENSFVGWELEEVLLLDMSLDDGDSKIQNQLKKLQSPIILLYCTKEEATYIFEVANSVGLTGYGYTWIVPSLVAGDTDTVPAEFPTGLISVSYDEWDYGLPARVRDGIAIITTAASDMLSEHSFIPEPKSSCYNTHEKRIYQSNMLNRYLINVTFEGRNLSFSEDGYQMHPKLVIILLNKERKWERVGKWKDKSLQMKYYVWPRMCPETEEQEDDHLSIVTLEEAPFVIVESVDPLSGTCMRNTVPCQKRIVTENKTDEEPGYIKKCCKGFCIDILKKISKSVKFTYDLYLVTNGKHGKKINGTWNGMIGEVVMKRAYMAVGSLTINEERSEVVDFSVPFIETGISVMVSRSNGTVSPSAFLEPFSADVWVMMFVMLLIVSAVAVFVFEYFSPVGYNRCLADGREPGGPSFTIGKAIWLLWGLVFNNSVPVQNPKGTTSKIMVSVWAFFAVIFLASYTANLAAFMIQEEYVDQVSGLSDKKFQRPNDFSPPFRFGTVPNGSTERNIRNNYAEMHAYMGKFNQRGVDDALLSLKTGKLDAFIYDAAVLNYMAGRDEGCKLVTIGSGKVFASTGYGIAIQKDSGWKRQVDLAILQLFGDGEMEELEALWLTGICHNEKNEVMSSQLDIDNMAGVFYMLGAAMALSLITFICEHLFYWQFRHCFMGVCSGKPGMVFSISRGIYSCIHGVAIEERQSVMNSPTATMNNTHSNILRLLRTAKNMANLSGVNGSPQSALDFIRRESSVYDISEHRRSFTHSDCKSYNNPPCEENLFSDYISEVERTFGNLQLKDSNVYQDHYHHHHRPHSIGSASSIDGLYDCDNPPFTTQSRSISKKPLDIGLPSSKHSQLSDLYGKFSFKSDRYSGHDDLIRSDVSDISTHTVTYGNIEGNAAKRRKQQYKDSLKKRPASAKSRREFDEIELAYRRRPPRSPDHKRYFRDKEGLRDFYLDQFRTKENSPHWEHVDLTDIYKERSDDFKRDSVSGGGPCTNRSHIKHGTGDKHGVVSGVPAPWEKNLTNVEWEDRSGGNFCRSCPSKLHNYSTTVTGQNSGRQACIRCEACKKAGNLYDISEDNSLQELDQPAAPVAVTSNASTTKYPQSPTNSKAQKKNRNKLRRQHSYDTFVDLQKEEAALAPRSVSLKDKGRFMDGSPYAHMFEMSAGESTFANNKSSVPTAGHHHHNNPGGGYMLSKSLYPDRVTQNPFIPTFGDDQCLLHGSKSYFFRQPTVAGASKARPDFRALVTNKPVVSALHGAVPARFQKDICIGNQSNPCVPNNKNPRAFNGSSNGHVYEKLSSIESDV

| Compound | IC50 |
| --- | --- |
| Cc1cc(-n2cc(COc3ncc(OCCF)cn3)nn2)ccc1F [Example 483, 5-(2-Fluoroethoxy)-2-[[1-(4-fluoro-3-methyl-phenyl)triazol-4-yl]methoxy]pyrimidine] | 0.007 µM |
| Fc1c(-n2cc(COc3ncc(Cl)cn3)nn2)cccc1C(F)(F)F [Example 461, 5-Chloro-2-[[1-[2-fluoro-3-(trifluoromethyl)phenyl]triazol-4-yl]methoxy]pyrimidine] | 0.07 µM |
| Cc1cccc(-n2cc(COc3ncc(OC(F)F)cn3)nn2)c1F [Example 471, 5-(Difluoromethoxy)-2-[[1-(2-fluoro-3-methyl-phenyl)triazol-4-yl]methoxy]pyrimidine] | 1.73 µM |
| Cc1cnc(OCc2cn(-c3ccc(F)cc3C)nn2)nc1 [Example 490, 2-[[1-(4-Fluoro-2-methyl-phenyl)triazol-4-yl]methoxy]-5-methyl-pyrimidine] | 2.44 µM |
| COc1cnc(OCc2cn(-c3ccc(F)c(F)c3)nn2)nc1 [Example 599, 2-[[1-(3,4-Difluorophenyl)triazol-4-yl]methoxy]-5-methoxy-pyrimidine] | 0.034 µM |
| Cc1cnc(OCc2cn(-c3ccc(F)c(C(C)(F)F)c3)nn2)nc1C [Example 573, 2-[[1-[3-(1,1-Difluoroethyl)-4-fluoro-phenyl]triazol-4-yl]methoxy]-4,5-dimethyl-pyrimidine] | 0.019 µM |
| FC(F)c1cc(-n2cc(COc3nccc(N4CCCC4)n3)nn2)ccc1Cl [Example 634, 2-[[1-[4-Chloro-3-(difluoromethyl)phenyl]triazol-4-yl]methoxy]-4-pyrrolidin-1-yl-pyrimidine] | 0.012 µM |
| Cc1c(F)ccc(-n2cc(COc3ncc(C(C)C)cn3)nn2)c1F [Example 639, 2-[[1-(2,4-Difluoro-3-methyl-phenyl)triazol-4-yl]methoxy]-5-isopropyl-pyrimidine] | 0.052 µM |
| CNc1ccnc(OCc2cn(-c3ccc(F)c(C(F)(F)F)c3)nn2)n1 [Example 449, 2-[[1-[4-Fluoro-3-(trifluoromethyl)phenyl]triazol-4-yl]methoxy]-N-methyl-pyrimidin-4-amine] | 0.034 µM |
| CC(F)(F)c1cc(-n2cc(COc3ncc(S(C)(=O)=O)cn3)nn2)ccc1F [Example 584, 2-[[1-[3-(1,1-Difluoroethyl)-4-fluoro-phenyl]triazol-4-yl]methoxy]-5-methylsulfonyl-pyrimidine] | 0.199 µM |
| COC1CN(c2cnc(OCc3cn(-c4ccc(F)c(C(F)F)c4)nn3)nc2)C1 [Example 418, 2-((1-(3-(Difluoromethyl)-4-fluorophenyl)-1H-1,2,3-triazol-4-yl)methoxy)-5-(3-methoxyazetidin-1-yl)pyrimidine] | 0.271 µM |
| Cc1cnc(OCc2cn(-c3ccc(C)c(OC(F)F)c3)nn2)nc1 [Example 524, 2-[[1-[3-(Difluoromethoxy)-4-methyl-phenyl]triazol-4-yl]methoxy]-5-methyl-pyrimidine] | 0.028 µM |
| Cc1nc(OCc2cn(-c3ccc(F)c(C(F)(F)F)c3)nn2)ncc1Cl [Example 444, 5-Chloro-2-[[1-[4-fluoro-3-(trifluoromethyl)phenyl]triazol-4-yl]methoxy]-4-methyl-pyrimidine] | 0.013 µM |
| CC(C)(O)c1cnc(OCc2cn(-c3ccc(F)c(OC(F)F)c3)nn2)nc1 [Example 500, 2-[2-[[1-[3-(Difluoromethoxy)-4-fluoro-phenyl]triazol-4-yl]methoxy]pyrimidin-5-yl]propan-2-ol] | 0.068 µM |
| Cc1cnc(OCc2cn(-c3ccc(F)c(C)c3F)nn2)nc1N [Example 651, 2-[[1-(2,4-Difluoro-3-methyl-phenyl)triazol-4-yl]methoxy]-5-methyl-pyrimidin-4-amine] | 0.262 µM |
| Cc1cc(F)ccc1-n1cc(COc2ncc(Cl)cn2)nn1 [Example 489, 5-Chloro-2-[[1-(4-fluoro-2-methyl-phenyl)triazol-4-yl]methoxy]pyrimidine] | 4.42 µM |
| Cc1ccnc(OCc2cn(-c3ccc(F)c(C(C)(F)F)c3)nn2)c1 [Example 557, 2-[[1-[3-(1,1-Difluoroethyl)-4-fluoro-phenyl]triazol-4-yl]methoxy]-4-methyl-pyridine] | 0.246 µM |

Same assay, conditions: standard assay; human GluN1/GluN2B, calcium flux (FLIPR), glutamate ~EC80

| Compound | IC50 |
| --- | --- |
| COCc1ccnc(OCc2cn(-c3cccc(OC(F)(F)F)c3)nn2)n1 [Example 346, 4-(Methoxymethyl)-2-[[1-[3-(trifluoromethoxy)phenyl]triazol-4-yl]methoxy]pyrimidine] | 0.202 µM |
| Cc1cccc(-n2cc(COc3nccc(C)n3)nn2)c1 [Example 244, 4-Methyl-2-[[1-(m-tolyl)triazol-4-yl]methoxy]pyrimidine] | 0.191 µM |
| Cc1cnc(OCc2cn(-c3ccc(Cl)c(OC(F)F)c3)nn2)cn1 [Example 34, 2-[[1-[4-Chloro-3-(difluoromethoxy)phenyl]triazol-4-yl]methoxy]-5-methyl-pyrazine] | 0.159 µM |
| Cc1cnc(NCc2cn(-c3ccc(F)c(C(C)(F)F)c3)nn2)nc1 [Example 206, N-[[1-[3-(1,1-Difluoroethyl)-4-fluoro-phenyl]triazol-4-yl]methyl]-5-methyl-pyrimidin-2-amine] | 0.219 µM |
| Cc1cnc(OCc2cn(-c3ccnc(C)c3)nn2)nc1 [Example 175, 5-Methyl-2-[[1-(2-methyl-4-pyridyl)triazol-4-yl]methoxy]pyrimidine] | 0.655 µM |
| CC(F)(F)c1cccc(-n2cc(COc3nccc(N4CCCC4)n3)nn2)c1 [Example 322, 2-[[1-[3-(1,1-Difluoroethyl)phenyl]triazol-4-yl]methoxy]-4-pyrrolidin-1-yl-pyrimidine] | 0.011 µM |
| C[C@@H](Oc1ncccn1)c1cn(-c2ccc(Cl)c(OC(F)F)c2)nn1 [Example 374, 2-[(1R)-1-[1-[4-Chloro-3-(difluoromethoxy)phenyl]triazol-4-yl]ethoxy]pyrimidine] | 0.011 µM |
| Cc1ccnc(OCc2cn(-c3ccc(F)c(C(F)F)c3)nn2)c1 [Example 115, 2-[[1-[3-(Difluoromethyl)-4-fluoro-phenyl]triazol-4-yl]methoxy]-4-methyl-pyridine] | 0.17 µM |
| FC(F)Oc1cnc(OCc2cn(-c3cccc(C(F)F)c3)nn2)nc1 [Example 276, 5-(Difluoromethoxy)-2-[[1-[3-(difluoromethyl)phenyl]triazol-4-yl]methoxy]pyrimidine] | 0.031 µM |
| COc1cnc(OCc2nnn(-c3cccc(C(F)F)c3)c2C)nc1 [Example 172, 2-[[1-[3-(Difluoromethyl)phenyl]-5-methyl-triazol-4-yl]methoxy]-5-methoxy-pyrimidine] | 0.468 µM |
| FC(F)(F)Oc1ccc(-n2cc(COc3ncc(Cl)cn3)nn2)cc1 [Example 338, 5-Chloro-2-[[1-[4-(trifluoromethoxy)phenyl]triazol-4-yl]methoxy]pyrimidine] | 9.05 µM |
| COC(=O)c1ccnc(OCc2cn(-c3ccc(Cl)c(OC(F)F)c3)nn2)n1 [Example 387, Methyl 2-((1-(4-chloro-3-(difluoromethoxy)phenyl)-1H-1,2,3-triazol-4-yl)methoxy)pyrimidine-4-carboxylate] | 0.068 µM |
| FC(F)(F)c1cnc(OCc2cn(-c3ccc(Cl)cc3)nn2)nc1 [Example 226, 2-[[1-(4-Chlorophenyl)triazol-4-yl]methoxy]-5-(trifluoromethyl)pyrimidine] | 0.155 µM |
| Cc1cnc(OCc2cn(-c3cccc(C(C)C)c3)nn2)nc1 [Example 266, 2-[[1-(3-Isopropylphenyl)triazol-4-yl]methoxy]-5-methyl-pyrimidine] | 0.01 µM |
